Test results as given in US11713344B2 (DONG-A ST CO., LTD., priority 2017, dated 2023).
*1 amine or outer side, *2 acyl side, *3 side chain or, on linkers, in order; H or OH if unused. Where a SMILES comes first, the peptide text is derived from it. Side-chain parts run from the residue outwards. [ ]: non-standard residue; d: D form. The star is where a group is joined. γGlu = O=C(O)[C@H](CCC(=O)[*:2])N[*:1]; Stearoyl = CCCCCCCCCCCCCCCCCC(=O)*; AEEA = NCCOCCOCC(=O)O; Aib = CC(C)(N)C(=O)O

Legend:
Human GLP-1 receptors = Human GLP-1 receptors (Homo sapiens, UniProt P43220); experiment: GLP-1 receptor activation assay (CRE-luciferase reporter, CHO-K1)
Human glucagon receptors = Human glucagon receptors (Homo sapiens, UniProt P47871); experiment: Glucagon receptor activation assay (CRE-luciferase reporter, CHO-K1)
Chain of Human glucagon receptors (P47871 26-477): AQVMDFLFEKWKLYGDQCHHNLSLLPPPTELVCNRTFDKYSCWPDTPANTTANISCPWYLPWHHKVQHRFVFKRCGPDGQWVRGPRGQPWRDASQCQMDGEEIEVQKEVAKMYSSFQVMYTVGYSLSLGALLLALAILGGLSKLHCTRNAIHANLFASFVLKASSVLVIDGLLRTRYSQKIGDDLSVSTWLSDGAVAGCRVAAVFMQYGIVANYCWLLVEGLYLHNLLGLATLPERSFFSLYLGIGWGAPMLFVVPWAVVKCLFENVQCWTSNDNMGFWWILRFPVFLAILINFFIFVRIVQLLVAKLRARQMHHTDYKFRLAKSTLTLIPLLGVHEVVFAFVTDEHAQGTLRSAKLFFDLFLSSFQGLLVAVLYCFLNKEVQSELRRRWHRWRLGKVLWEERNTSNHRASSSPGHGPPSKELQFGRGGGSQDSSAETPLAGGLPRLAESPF
Description: Then, the resulting increased luciferase activity was evaluated as a measurement of the effect on each receptor activation.
After 3 hours of transfection, medium was exchanged to Alpha Minimal Essential Medium (α-MEM) comprising 10% fetal bovine serum (FBS). Next day, the medium was exchanged to α-MEM comprising the analog of the present invention and 0.1% bovine serum albumin (BSA). After 6 hours, dual luciferase assay reagent was added in the same amount as the medium in which the cells were submerged, and firefly luciferase and Renilla luciferase activities were continuously measured. Firefly luciferase activity values were corrected against Renilla luciferase activity to yield transfection efficiency.

Chain of Human GLP-1 receptors (P43220 24-463): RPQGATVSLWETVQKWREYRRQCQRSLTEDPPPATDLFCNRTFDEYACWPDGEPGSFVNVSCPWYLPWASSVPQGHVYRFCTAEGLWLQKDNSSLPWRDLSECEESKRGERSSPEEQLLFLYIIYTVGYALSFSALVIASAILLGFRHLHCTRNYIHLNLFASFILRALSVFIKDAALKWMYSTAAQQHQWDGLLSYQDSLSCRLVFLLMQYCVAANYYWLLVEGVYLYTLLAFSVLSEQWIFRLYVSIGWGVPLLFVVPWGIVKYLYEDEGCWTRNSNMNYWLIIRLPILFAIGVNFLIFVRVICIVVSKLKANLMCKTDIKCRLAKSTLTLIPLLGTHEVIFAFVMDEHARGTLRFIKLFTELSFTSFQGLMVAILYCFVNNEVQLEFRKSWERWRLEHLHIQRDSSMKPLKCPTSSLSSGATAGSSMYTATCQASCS

CCCCCCCCCCCCCCCCCC(=O)N[C@@H](CCC(=O)NCCOCCOCC(=O)NCCOCCOCC(=O)NCCCC[C@H](NC(=O)[C@H](CC(=O)O)NC(=O)[C@H](CO)NC(=O)[C@@H](NC(=O)[C@H](Cc1ccccc1)NC(=O)[C@@H](NC(=O)CNC(=O)[C@H](CCC(N)=O)NC(=O)C(C)(C)NC(=O)[C@@H](N)Cc1c[nH]cn1)[C@@H](C)O)[C@@H](C)O)C(=O)N[C@@H](CO)C(=O)N[C@@H](CCCCN)C(=O)N[C@@H](Cc1ccc(O)cc1)C(=O)N[C@@H](CC(C)C)C(=O)N[C@@H](CC(=O)O)C(=O)N[C@H]1CC(=O)NCC(=O)NCCCC[C@@H](C(=O)N[C@@H](CC(=O)O)C(=O)N[C@@H](Cc2ccccc2)C(=O)N[C@H](C(=O)N[C@@H](CCC(N)=O)C(=O)N[C@@H](Cc2c[nH]c3ccccc23)C(=O)N[C@@H](CC(C)C)C(=O)N[C@@H](CCSC)C(=O)N[C@@H](CC(N)=O)C(=O)N[C@H](C(=O)N[C@@H](CCCCN)C(=O)O)[C@@H](C)O)C(C)C)NC(=O)[C@H](C)NC(=O)[C@H](CCCNC(=N)N)NC(=O)[C@H](CCCNC(=N)N)NC1=O)C(=O)O [Compound 37, H-HAibQGTFTSDZSKYLDDRRAKDFVQWLMNTK-OH]
EC50 (Human GLP-1 receptors): < 0.01 nM
EC50 (Human glucagon receptors): < 0.01 nM

CCCCCCCCCCCCCCCCCC(=O)N[C@@H](CCC(=O)NCCOCCOCC(=O)NCCOCCOCC(=O)NCCCC[C@H](NC(=O)[C@H](CC(=O)O)NC(=O)[C@H](CO)NC(=O)[C@@H](NC(=O)[C@H](Cc1ccccc1)NC(=O)[C@@H](NC(=O)CNC(=O)[C@H](CCC(N)=O)NC(=O)C(C)(C)NC(=O)[C@@H](N)Cc1c[nH]cn1)[C@@H](C)O)[C@@H](C)O)C(=O)N[C@@H](CO)C(=O)N[C@@H](CCCCN)C(=O)N[C@@H](Cc1ccc(O)cc1)C(=O)N[C@@H](CC(C)C)C(=O)N[C@@H](CC(=O)O)C(=O)N[C@H]1CC(=O)N[C@@H](CC(C)C)C(=O)NCCCC[C@@H](C(=O)N[C@@H](CC(=O)O)C(=O)N[C@@H](Cc2ccccc2)C(=O)N[C@H](C(=O)N[C@@H](CCC(N)=O)C(=O)N[C@@H](Cc2c[nH]c3ccccc23)C(=O)N[C@@H](CC(C)C)C(=O)N[C@@H](CCSC)C(=O)N[C@@H](CC(N)=O)C(=O)N[C@H](C(=O)N[C@@H](CCCCN)C(=O)O)[C@@H](C)O)C(C)C)NC(=O)[C@H](C)NC(=O)[C@H](CCCNC(=N)N)NC(=O)[C@H](CCCNC(=N)N)NC1=O)C(=O)O [Compound 38, H-HAibQGTFTSDZSKYLDDRRAKDFVQWLMNTK-OH]
EC50 (Human GLP-1 receptors): < 0.01 nM
EC50 (Human glucagon receptors): < 0.01 nM

CSCC[C@H](NC(=O)[C@H](CC(C)C)NC(=O)[C@H](Cc1c[nH]c2ccccc12)NC(=O)[C@H](CCC(N)=O)NC(=O)[C@@H](NC(=O)[C@H](Cc1ccccc1)NC(=O)[C@H](CC(=O)O)NC(=O)[C@H](CCC(N)=O)NC(=O)[C@H](C)NC(=O)[C@H](CCCNC(=N)N)NC(=O)[C@H](CCCNC(=N)N)NC(=O)C(C)(C)NC(=O)[C@H](CC(=O)O)NC(=O)[C@H](CC(C)C)NC(=O)[C@H](Cc1ccc(O)cc1)NC(=O)[C@H](CCCCN)NC(=O)[C@H](CO)NC(=O)[C@H](CCCCN)NC(=O)[C@H](CC(=O)O)NC(=O)[C@H](CO)NC(=O)[C@@H](NC(=O)[C@H](Cc1ccccc1)NC(=O)[C@@H](NC(=O)CNC(=O)[C@H](CCC(N)=O)NC(=O)C(C)(C)NC(=O)[C@@H](N)Cc1c[nH]cn1)[C@@H](C)O)[C@@H](C)O)C(C)C)C(=O)N[C@@H](CC(N)=O)C(=O)N[C@H](C(=O)N[C@@H](CCCCN)C(=O)O)[C@@H](C)O [Compound 39]
EC50 (Human GLP-1 receptors): > 1 nM
EC50 (Human glucagon receptors): > 1 nM

CCCCCCCCCCCCCCCCCC(=O)N[C@@H](CCC(=O)NCCOCCOCC(=O)NCCOCCOCC(=O)NCCCC[C@H](NC(=O)[C@H](CO)NC(=O)[C@@H](NC(=O)[C@H](Cc1ccccc1)NC(=O)[C@@H](NC(=O)CNC(=O)[C@H](CCC(N)=O)NC(=O)C(C)(C)NC(=O)[C@@H](N)Cc1c[nH]cn1)[C@@H](C)O)[C@@H](C)O)C(=O)N[C@@H](Cc1ccc(O)cc1)C(=O)N[C@@H](CO)C(=O)N[C@@H](CCCCN)C(=O)N[C@@H](Cc1ccc(O)cc1)C(=O)N[C@@H](CC(C)C)C(=O)N[C@@H](CC(=O)O)C(=O)NC(C)(C)C(=O)N[C@@H](CCCNC(=N)N)C(=O)N[C@@H](CCCNC(=N)N)C(=O)N[C@@H](C)C(=O)N[C@@H](CCC(N)=O)C(=O)N[C@@H](CC(=O)O)C(=O)N[C@@H](Cc1ccccc1)C(=O)N[C@H](C(=O)N[C@@H](CCC(N)=O)C(=O)N[C@@H](Cc1c[nH]c2ccccc12)C(=O)N[C@@H](CC(C)C)C(=O)N[C@@H](CCSC)C(=O)N[C@@H](CC(N)=O)C(=O)N[C@H](C(=O)N[C@@H](CCCCN)C(=O)O)[C@@H](C)O)C(C)C)C(=O)O [Compound 40] (H-H[Aib]QGTFTSK([AEEA-AEEA-γGlu-Stearoyl])YSKYLD[Aib]RRAQDFVQWLMNTK-OH)
EC50 (Human GLP-1 receptors): 0.1 to 1 nM
EC50 (Human glucagon receptors): > 1 nM

CSCC[C@H](NC(=O)[C@H](CC(C)C)NC(=O)[C@H](Cc1c[nH]c2ccccc12)NC(=O)[C@H](CCC(N)=O)NC(=O)[C@@H](NC(=O)[C@H](Cc1ccccc1)NC(=O)[C@H](CC(=O)O)NC(=O)[C@H](CCC(N)=O)NC(=O)[C@H](C)NC(=O)[C@H](CCCNC(=N)N)NC(=O)[C@H](CCCNC(=N)N)NC(=O)C(C)(C)NC(=O)[C@H](CC(=O)O)NC(=O)[C@H](CC(C)C)NC(=O)[C@H](Cc1ccc(O)cc1)NC(=O)[C@H](CCCCN)NC(=O)[C@H](CO)NC(=O)[C@H](CCCCNC(=O)COCCOCCNC(=O)COCCOCCNC(=O)CC[C@H](NC(=O)CCCCCCCCCCCCCCC(=O)O)C(=O)O)NC(=O)[C@H](CC(=O)O)NC(=O)[C@H](CO)NC(=O)[C@@H](NC(=O)[C@H](Cc1ccccc1)NC(=O)[C@@H](NC(=O)CNC(=O)[C@H](CCC(N)=O)NC(=O)C(C)(C)NC(=O)[C@@H](N)Cc1c[nH]cn1)[C@@H](C)O)[C@@H](C)O)C(C)C)C(=O)N[C@@H](CC(N)=O)C(=O)N[C@H](C(=O)N[C@@H](CCCCN)C(=O)O)[C@@H](C)O [Compound 42]
EC50 (Human GLP-1 receptors): 0.1 to 1 nM
EC50 (Human glucagon receptors): > 1 nM

CSCC[C@H](NC(=O)[C@H](CC(C)C)NC(=O)[C@H](Cc1c[nH]c2ccccc12)NC(=O)[C@H](CCC(N)=O)NC(=O)[C@@H](NC(=O)[C@H](Cc1ccccc1)NC(=O)[C@H](CC(=O)O)NC(=O)[C@H](CCC(N)=O)NC(=O)[C@H](C)NC(=O)[C@H](CCCNC(=N)N)NC(=O)[C@H](CCCNC(=N)N)NC(=O)C(C)(C)NC(=O)[C@H](CC(=O)O)NC(=O)[C@H](CC(C)C)NC(=O)[C@H](Cc1ccc(O)cc1)NC(=O)[C@H](CCCCN)NC(=O)[C@H](CO)NC(=O)[C@H](CCCCNC(=O)COCCOCCNC(=O)COCCOCCNC(=O)CC[C@H](NC(=O)CCCCCCCCCCCCCCCCC(=O)O)C(=O)O)NC(=O)[C@H](CC(=O)O)NC(=O)[C@H](CO)NC(=O)[C@@H](NC(=O)[C@H](Cc1ccccc1)NC(=O)[C@@H](NC(=O)CNC(=O)[C@H](CCC(N)=O)NC(=O)C(C)(C)NC(=O)[C@@H](N)Cc1c[nH]cn1)[C@@H](C)O)[C@@H](C)O)C(C)C)C(=O)N[C@@H](CC(N)=O)C(=O)N[C@H](C(=O)N[C@@H](CCCCN)C(=O)O)[C@@H](C)O [Compound 43]
EC50 (Human GLP-1 receptors): > 1 nM
EC50 (Human glucagon receptors): > 1 nM

CSCC[C@H](NC(=O)[C@H](CC(C)C)NC(=O)[C@H](Cc1c[nH]c2ccccc12)NC(=O)[C@H](CCC(N)=O)NC(=O)[C@@H](NC(=O)[C@H](Cc1ccccc1)NC(=O)[C@H](CC(=O)O)NC(=O)[C@H](CCC(N)=O)NC(=O)[C@H](C)NC(=O)[C@H](CCCNC(=N)N)NC(=O)[C@H](CCCNC(=N)N)NC(=O)C(C)(C)NC(=O)[C@H](CC(=O)O)NC(=O)[C@H](CC(C)C)NC(=O)[C@H](Cc1ccc(O)cc1)NC(=O)[C@H](CCCCN)NC(=O)[C@H](CO)NC(=O)[C@H](CCCCNC(=O)COCCOCCNC(=O)COCCOCCNC(=O)CC[C@H](NC(=O)CCCCCCCCCCCCCCCCCCC(=O)O)C(=O)O)NC(=O)[C@H](CC(=O)O)NC(=O)[C@H](CO)NC(=O)[C@@H](NC(=O)[C@H](Cc1ccccc1)NC(=O)[C@@H](NC(=O)CNC(=O)[C@H](CCC(N)=O)NC(=O)C(C)(C)NC(=O)[C@@H](N)Cc1c[nH]cn1)[C@@H](C)O)[C@@H](C)O)C(C)C)C(=O)N[C@@H](CC(N)=O)C(=O)N[C@H](C(=O)N[C@@H](CCCCN)C(=O)O)[C@@H](C)O [Compound 44]
EC50 (Human GLP-1 receptors): 0.1 to 1 nM
EC50 (Human glucagon receptors): > 1 nM

CSCC[C@H](NC(=O)[C@H](CC(C)C)NC(=O)[C@H](Cc1c[nH]c2ccccc12)NC(=O)[C@H](CCC(N)=O)NC(=O)[C@@H](NC(=O)[C@H](Cc1ccccc1)NC(=O)[C@H](CC(=O)O)NC(=O)[C@H](CCC(N)=O)NC(=O)[C@H](C)NC(=O)[C@H](CCCNC(=N)N)NC(=O)[C@H](CCCNC(=N)N)NC(=O)C(C)(C)NC(=O)[C@H](CC(=O)O)NC(=O)[C@H](CC(C)C)NC(=O)[C@H](Cc1ccc(O)cc1)NC(=O)[C@H](CCCCN)NC(=O)[C@H](CO)NC(=O)[C@H](CCCCNC(=O)COCCOCCNC(=O)COCCOCCNC(=O)CC[C@H](NC(=O)CCCCCCCCCCCCCCC(=O)NCC(=O)O)C(=O)O)NC(=O)[C@H](CC(=O)O)NC(=O)[C@H](CO)NC(=O)[C@@H](NC(=O)[C@H](Cc1ccccc1)NC(=O)[C@@H](NC(=O)CNC(=O)[C@H](CCC(N)=O)NC(=O)C(C)(C)NC(=O)[C@@H](N)Cc1c[nH]cn1)[C@@H](C)O)[C@@H](C)O)C(C)C)C(=O)N[C@@H](CC(N)=O)C(=O)N[C@H](C(=O)N[C@@H](CCCCN)C(=O)O)[C@@H](C)O [Compound 45]
EC50 (Human GLP-1 receptors): 0.1 to 1 nM
EC50 (Human glucagon receptors): 0.1 to 1 nM

CSCC[C@H](NC(=O)[C@H](CC(C)C)NC(=O)[C@H](Cc1c[nH]c2ccccc12)NC(=O)[C@H](CCC(N)=O)NC(=O)[C@@H](NC(=O)[C@H](Cc1ccccc1)NC(=O)[C@H](CC(=O)O)NC(=O)[C@H](CCC(N)=O)NC(=O)[C@H](C)NC(=O)[C@H](CCCNC(=N)N)NC(=O)[C@H](CCCNC(=N)N)NC(=O)C(C)(C)NC(=O)[C@H](CC(=O)O)NC(=O)[C@H](CC(C)C)NC(=O)[C@H](Cc1ccc(O)cc1)NC(=O)[C@H](CCCCN)NC(=O)[C@H](CO)NC(=O)[C@H](CCCCNC(=O)COCCOCCNC(=O)COCCOCCNC(=O)CC[C@H](NC(=O)CCCCCCCCCCCCCCC(=O)N[C@H](C(=O)O)C(C)C)C(=O)O)NC(=O)[C@H](CC(=O)O)NC(=O)[C@H](CO)NC(=O)[C@@H](NC(=O)[C@H](Cc1ccccc1)NC(=O)[C@@H](NC(=O)CNC(=O)[C@H](CCC(N)=O)NC(=O)C(C)(C)NC(=O)[C@@H](N)Cc1c[nH]cn1)[C@@H](C)O)[C@@H](C)O)C(C)C)C(=O)N[C@@H](CC(N)=O)C(=O)N[C@H](C(=O)N[C@@H](CCCCN)C(=O)O)[C@@H](C)O [Compound 46]
EC50 (Human GLP-1 receptors): 0.1 to 1 nM
EC50 (Human glucagon receptors): 0.1 to 1 nM
